The values that follow are results of earlier work, collected in patent US20090082464A1, “EXTERNALLY MASKED NEOPENTYL SULFONYL ESTER CYCLIZATION RELEASE PRODRUGS OF ACAMPROSATE, COMPOSITIONS THEREOF, AND METHODS OF USE” (priority 2007, published 2009).

One series has as its system cocaine conditioned mice. The following applies: 100 mg/kg for 3 days.

Consider `CC(=O)NCCCS(=O)(=O)O` [acamprosate, 3-(Acetylamino)propylsulfonic acid], for which, where the note is “doses of about 1-2 gm per day”, the steady-state plasma concentration was 370 to 640 ng/mL and the “time post-dose at which steady-state plasma concentration occurs” value is 3 to 8 h. The “oral bioavailability of acamprosate” value (humans, oral) is on record as “about 11%”. Further, the relapse-like behavior result with cocaine conditioned mice is on record as “attenuated relapse-like behavior”.
